Patent US4889801A (Daiichi Pure Chemicals Co., Ltd., priority 1986, dated 1989)

system: 3α-hydroxysteroid oxidase; test: Relative activities of the 3α-hydroxysteroid oxidase for various substrates; format: biochemical, Pseudomonas testosterone ATCC 11996; details: substrate of the oxidase; R.A. of cholic acid being 100
Method: Thereafter, the microorganism was cultured at the same temperature for 10-24 hours. After completion of the culture, the resultant culture broth was centrifuged to separate and collect cells. The thus-collected cells were suspended at 5° C. in 5 volumes of a 0.02 M phosphate buffer of pH 7.0, which contained 1% (w/v) of "Triton X-100" (BDH Ltd.), to a total volume of 1 l. By a cell disrupter, DINO-MILL (trade mark; manufactured by Willy A. Bachofen Maschinenfabrik AG), the cells were disrupted to release the enzyme. […] The extract was then added with 430 g of ammonium sulfate to a final concentration of 65% saturation, the precipitated fraction was collected by centrifugation. The precipitate was dissolved in a 0.lM phosphate buffer (pH 7) containing 0.1% of "Triton X-100" and the resultant mixture was dialyzed for 24 hours against the same buffer in order to remove any remaining ammonium sulfate.
An azide was added as a preservative to the enzyme solution.

In order of falling “R.A. (relative activity)” value:
1. C[C@]12CC[C@@H](O)C[C@H]1CC[C@@H]1[C@@H]2CC[C@]2(C)C(=O)CC[C@@H]12 [Ethiocholan-3α-ol-17-one]  140%
2. C[C@H](CCC(=O)O)[C@H]1CC[C@H]2[C@@H]3[C@H](O)C[C@@H]4C[C@H](O)CC[C@]4(C)[C@H]3C[C@H](O)[C@]12C [Cholic acid]  100%
3. C[C@H](CCC(=O)NCC(=O)O)[C@H]1CC[C@H]2[C@@H]3[C@H](O)C[C@@H]4C[C@H](O)CC[C@]4(C)[C@H]3C[C@H](O)[C@]12C [Glycocholic acid]  95%
4. C[C@H](CCC(=O)O)[C@H]1CC[C@H]2[C@@H]3[C@H](O)C[C@@H]4C[C@H](O)CC[C@]4(C)[C@H]3CC[C@]12C [Chenodeoxycholic acid]  89%
5. C[C@H](CCC(=O)O)[C@H]1CC[C@H]2[C@@H]3CC[C@@H]4C[C@H](O)CC[C@]4(C)[C@H]3C[C@H](O)[C@]12C [Deoxycholic acid]  86%
6. C[C@H](CCC(=O)O)[C@H]1CC[C@H]2[C@@H]3CC[C@@H]4C[C@H](O)CC[C@]4(C)[C@H]3CC[C@]12C [Cithocholic acid]  57%
7. C[C@]12CCC(=O)C[C@H]1CC[C@@H]1[C@@H]2CC[C@]2(C)C(=O)CC[C@@H]12 [5β-Androstan-3,17-dione]  18%
8. CC(C)CCC[C@@H](C)[C@H]1CC[C@H]2[C@@H]3CC=C4C[C@@H](O)CC[C@]4(C)[C@H]3CC[C@]12C [Cholesterol]  0%
9. C[C@]12CCC(=O)C[C@@H]1CC[C@@H]1[C@@H]2CC[C@]2(C)C(=O)CC[C@@H]12 [5α-Androstan-3,17-dione]  0%
10. C[C@]12CC[C@H]3[C@@H](CCC4=CC(=O)CC[C@@]43C)[C@@H]1CC[C@@H]2O [Testosterone]  0%
11. C[C@]12CC[C@@H](O)C[C@@H]1CC[C@@H]1[C@@H]2CC[C@]2(C)C(=O)CC[C@@H]12 [5α-Androstan-3α-ol-17-one]  0%

system: 3α-hydroxysteroid oxidase; test: Enzymatic characteristics: substrate specificity and Km value; format: biochemical, Pseudomonas testosterone ATCC 11996; details: not given

In the case of `C[C@@]12CCC[C@H]1[C@@H]1CC[C@@H]3C[C@H](O)CC[C@]3(C)[C@H]1CC2` [5β-androstan-3α-ol], the “Substrate specificity (oxidase acts on substrate or not)” value is reported as “acts on”.

same assay, conditions: against ethiocholan-3α-ol-17-one

`C[C@]12CC[C@@H](O)C[C@H]1CC[C@@H]1[C@@H]2CC[C@]2(C)C(=O)CC[C@@H]12` [Ethiocholan-3α-ol-17-one] gave a Km of 800 µM.
